ChEMBL document CHEMBL1142309, “The discovery of GSK221149A: a potent and selective oxytocin antagonist” (Bioorg Med Chem Lett, 2008)
pIC50, pKi: −log10 of the molar value. ≈ marks a conversion by molar mass, not a printed value. Where a SMILES comes first, the peptide text is derived from it. Bridges are numbered along the chain shown (N, C = ends). [ ]: non-standard residue; d: D form. Orn = NCCC[C@H](N)C(=O)O; Mpa = O=C(O)CCS

What was measured:
[1] = Binding affinity to human serum albumin; type: ADME, cell-free; details: read-out: PB (converted)
Cytochrome P450 3A4 = Cytochrome P450 3A4 (Homo sapiens, UniProt P08684); experiment: Inhibition of CYP3A4; type: ADME
[2] = Aqueous solubility of the compound; type: physicochemical; details: buffer
[3] = Distribution coefficient, log D of the compound; type: physicochemical; details: chromatographic
Oxytocin receptor = molecular target: T1, Oxytocin receptor (Homo sapiens, UniProt P30559); experiment: Binding affinity to human oxytocin receptor; details: for Ki: read-out: Log Ki (converted)
T1 sequence (P30559 whole entry): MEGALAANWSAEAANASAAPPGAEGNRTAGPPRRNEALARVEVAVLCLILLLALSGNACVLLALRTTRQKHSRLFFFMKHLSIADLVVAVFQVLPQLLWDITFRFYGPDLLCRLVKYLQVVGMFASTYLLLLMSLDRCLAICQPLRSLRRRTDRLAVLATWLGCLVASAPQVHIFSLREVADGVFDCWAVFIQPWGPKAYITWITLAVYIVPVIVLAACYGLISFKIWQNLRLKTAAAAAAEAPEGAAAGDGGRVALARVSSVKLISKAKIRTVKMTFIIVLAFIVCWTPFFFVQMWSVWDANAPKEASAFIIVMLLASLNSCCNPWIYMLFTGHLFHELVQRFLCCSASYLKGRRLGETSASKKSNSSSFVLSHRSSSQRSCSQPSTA

[4] = Half life in rat at 2 mg/kg, iv or 5 mg/kg, po; type: ADME, organism-based; details: in vivo
Vasopressin V2 receptor = Vasopressin V2 receptor (Homo sapiens, UniProt P30518); experiment: Binding affinity to human vasopressin V2 receptor
Rattus norvegicus = experiment: Decrease in oxytocin-induced uterine contractions in iv dosed non-pregnant Sprague-Dawley rat; type: functional, organism-based
Vasopressin V1b receptor = molecular target: T2, Vasopressin V1b receptor (Homo sapiens, UniProt P47901); experiment: Binding affinity to human vasopressin V1b receptor
T2 sequence (P47901 whole entry): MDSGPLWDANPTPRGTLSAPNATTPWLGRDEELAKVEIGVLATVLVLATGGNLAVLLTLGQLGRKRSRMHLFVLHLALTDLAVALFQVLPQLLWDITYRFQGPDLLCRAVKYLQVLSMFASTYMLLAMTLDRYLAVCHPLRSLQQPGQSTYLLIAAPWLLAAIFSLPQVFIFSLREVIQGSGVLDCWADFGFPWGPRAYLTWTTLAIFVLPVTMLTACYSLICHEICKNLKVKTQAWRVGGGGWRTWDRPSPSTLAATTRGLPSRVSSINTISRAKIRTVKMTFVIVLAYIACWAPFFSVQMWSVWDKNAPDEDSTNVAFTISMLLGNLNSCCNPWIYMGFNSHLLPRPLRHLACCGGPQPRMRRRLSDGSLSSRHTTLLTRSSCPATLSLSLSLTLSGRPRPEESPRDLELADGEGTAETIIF

[5] = AUC in rat at 5 mg/kg, po in DMSO/PEG400 formulation; type: ADME, organism-based; parameters: dose 5 mg/kg, route oral; details: plasma
[6] = AUC in rat at 5 mg/kg, po in HPMC/Tween formulation; type: ADME, organism-based; parameters: dose 5 mg/kg, route oral; details: plasma
[7] = Clearance in rat at 2 mg/kg, iv or 5 mg/kg, po; type: ADME, organism-based; details: in vivo
Vasopressin V1a receptor = Vasopressin V1a receptor (Homo sapiens, UniProt P37288); experiment: Binding affinity to human vasopressin V1a receptor
[8] = Bioavailability in rat at 2 mg/kg, iv or 5 mg/kg, po; type: ADME, organism-based; details: in vivo
[9] = Selectivity for human oxytocin receptor over vasopressin V1a receptor
[10] = molecular target: Oxytocin receptor (Rattus norvegicus) (UniProt P70536); experiment: Binding affinity to recombinant oxytocin receptor
Sequence of Oxytocin receptor (Rattus norvegicus) (P70536 whole entry, looked up): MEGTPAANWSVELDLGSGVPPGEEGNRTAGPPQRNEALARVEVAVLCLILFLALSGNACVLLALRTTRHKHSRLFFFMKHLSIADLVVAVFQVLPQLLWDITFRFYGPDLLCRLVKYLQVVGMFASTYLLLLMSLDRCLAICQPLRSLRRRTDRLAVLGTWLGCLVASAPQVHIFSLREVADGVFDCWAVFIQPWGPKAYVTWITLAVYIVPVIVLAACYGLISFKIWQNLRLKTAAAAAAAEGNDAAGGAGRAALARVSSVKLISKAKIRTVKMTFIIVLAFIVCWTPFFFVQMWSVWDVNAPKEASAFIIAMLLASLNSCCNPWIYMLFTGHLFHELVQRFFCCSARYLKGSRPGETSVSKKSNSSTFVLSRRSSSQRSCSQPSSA

Sequence of Cytochrome P450 3A4 (P08684 whole entry): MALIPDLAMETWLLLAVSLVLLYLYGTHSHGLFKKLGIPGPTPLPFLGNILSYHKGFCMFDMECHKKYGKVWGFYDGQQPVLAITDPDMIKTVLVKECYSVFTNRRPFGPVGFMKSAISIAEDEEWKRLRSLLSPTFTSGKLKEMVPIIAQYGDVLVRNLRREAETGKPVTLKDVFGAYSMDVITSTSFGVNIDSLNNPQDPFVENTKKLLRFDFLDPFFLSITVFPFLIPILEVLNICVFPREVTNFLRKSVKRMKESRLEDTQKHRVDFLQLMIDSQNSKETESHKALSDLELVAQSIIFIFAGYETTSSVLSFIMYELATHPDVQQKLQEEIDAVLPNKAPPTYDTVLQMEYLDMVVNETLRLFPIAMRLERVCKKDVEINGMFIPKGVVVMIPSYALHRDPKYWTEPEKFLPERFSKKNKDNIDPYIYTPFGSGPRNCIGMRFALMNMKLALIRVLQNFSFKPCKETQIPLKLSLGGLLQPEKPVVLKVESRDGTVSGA
Sequence of Vasopressin V2 receptor (P30518 whole entry): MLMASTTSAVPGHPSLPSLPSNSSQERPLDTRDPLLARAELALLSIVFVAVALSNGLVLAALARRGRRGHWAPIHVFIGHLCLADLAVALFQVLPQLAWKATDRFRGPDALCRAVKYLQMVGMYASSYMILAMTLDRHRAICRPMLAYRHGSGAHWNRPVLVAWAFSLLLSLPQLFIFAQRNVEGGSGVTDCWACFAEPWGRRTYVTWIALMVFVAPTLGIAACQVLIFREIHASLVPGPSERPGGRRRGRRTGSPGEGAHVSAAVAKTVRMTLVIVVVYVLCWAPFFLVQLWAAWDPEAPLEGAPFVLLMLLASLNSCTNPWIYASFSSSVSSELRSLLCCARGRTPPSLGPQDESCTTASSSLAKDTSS
Sequence of Vasopressin V1a receptor (P37288 whole entry): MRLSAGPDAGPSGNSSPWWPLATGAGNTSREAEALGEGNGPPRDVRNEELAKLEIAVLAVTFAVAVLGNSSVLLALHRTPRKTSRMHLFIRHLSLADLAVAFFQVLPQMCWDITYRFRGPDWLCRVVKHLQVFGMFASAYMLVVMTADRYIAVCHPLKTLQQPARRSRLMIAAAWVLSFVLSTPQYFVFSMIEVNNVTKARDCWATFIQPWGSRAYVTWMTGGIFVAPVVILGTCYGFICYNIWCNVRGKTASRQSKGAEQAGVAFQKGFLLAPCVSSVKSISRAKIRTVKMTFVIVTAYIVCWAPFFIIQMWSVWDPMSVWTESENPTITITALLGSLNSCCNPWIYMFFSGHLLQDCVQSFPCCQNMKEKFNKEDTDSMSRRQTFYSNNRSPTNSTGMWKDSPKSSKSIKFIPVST

SMILES	fraction unbound [1]	pIC50 (Cytochrome P450 3A4)	solubility [2] [µg/mL]	Ki (Oxytocin receptor) [nM]	further results
CC(C)C[C@@H]1C(=O)N[C@H](C2Cc3ccccc3C2)C(=O)N1[C@@H](C(=O)NC(C)C)c1ccc(F)cc1F	0.07	5.40	< 1		logD [3]: 3.4
Cc1nc([C@H](C(=O)N(C)C)N2C(=O)[C@@H](C3Cc4ccccc4C3)NC(=O)[C@H]2CC(C)C)c(C)o1				3.16	
CC[C@H](C)[C@@H]1C(=O)N[C@H](C2Cc3ccccc3C2)C(=O)N1[C@@H](C(=O)N1CCOCC1)c1coc(C)n1 [RETOSIBAN]	> 0.2	< 4.00	> 220		half-life [4]: 1.4 h; pKi (Vasopressin V2 receptor): 6.02; pIC50 (Rattus norvegicus): 6.74; ED50 (Rattus norvegicus; iv, read-out: ID50 (the source's name)): 0.27 mg/kg; pKi (Vasopressin V1b receptor): < 5.00; AUC [5]: 5470 ng·h/mL; AUC [6]: 1800 ng·h/mL; clearance [7]: 19 mL/min/kg; pKi (Vasopressin V1a receptor): < 4.92; bioavailability [8]: 100%
CC(C)C[C@@H]1C(=O)N[C@H](C2Cc3ccccc3C2)C(=O)N1[C@@H](C(=O)NC(C)C)c1cccs1				6.31	
Cc1nc([C@H](C(=O)N2CCC2)N2C(=O)[C@@H](C3Cc4ccccc4C3)NC(=O)[C@H]2CC(C)C)co1	> 0.2	< 4.00	> 220	1.58	half-life [4]: 1.4 h; Selectivity ratio [9]: > 10; AUC [5]: 1070 ng·h/mL; clearance [7]: 35 mL/min/kg; bioavailability [8]: 45%
CC[C@@H](C)[C@@H]1C(=O)N[C@H](C2Cc3ccccc3C2)C(=O)N1[C@@H](C(=O)N1CCOCC1)c1coc(C)n1	> 0.2	< 4.00	> 220		half-life [4]: 1.3 h; AUC [5]: 4200 ng·h/mL; clearance [7]: 14 mL/min/kg; bioavailability [8]: 69%
Cc1nc([C@H](C(=O)N(C)C)N2C(=O)[C@@H](C3Cc4ccccc4C3)NC(=O)[C@H]2CC(C)C)cs1				0.398	
CC(C)C[C@@H]1C(=O)N[C@H](C2Cc3ccccc3C2)C(=O)N1[C@@H](C(=O)NC(C)C)c1ccco1				6.31	
Cc1ccc([C@H](C(=O)NC(C)C)N2C(=O)[C@@H](C3Cc4ccccc4C3)NC(=O)[C@H]2CC(C)C)o1	0.04	5.15	34 (≈ 73 µM)	1	logD [3]: 3.3
CC(C)C[C@@H]1C(=O)N[C@H](C2Cc3ccccc3C2)C(=O)N1[C@@H](C(=O)NC(C)C)c1ccc(-c2ccccn2)s1				2.51	
Cc1nc([C@H](C(=O)N(C)CCO)N2C(=O)[C@@H](C3Cc4ccccc4C3)NC(=O)[C@H]2CC(C)C)co1	> 0.2	< 4.00	> 220	1.26	Selectivity ratio [9]: > 10; AUC [5]: 218 ng·h/mL
CC(C)C[C@@H]1C(=O)N[C@H](C2Cc3ccccc3C2)C(=O)N1[C@@H](C(=O)NC(C)C)c1coc(C(F)(F)F)n1				0.158	
CC(C)C[C@@H]1C(=O)N[C@H](C2Cc3ccccc3C2)C(=O)N1[C@@H](C(=O)N(C)C)c1coc(C2CC2)n1				0.794	
CCOc1ccc(C[C@H]2NC(=O)CCSSC[C@@H](C(=O)N3CCC[C@H]3C(=O)N[C@@H](CCCN)C(=O)NCC(N)=O)NC(=O)[C@H](CC(N)=O)NC(=O)[C@H]([C@@H](C)O)NC(=O)[C@H]([C@@H](C)CC)NC2=O)cc1 [ATOSIBAN] ([Mpa][dY](Et)ITNCP[Orn]G-NH2; disulfide 1-6)					pKi (Oxytocin receptor; read-out: Ki): 7.96; pKi (Vasopressin V2 receptor): 6.48; pKi (Vasopressin V1b receptor): 7.36; pKi [10]: 7.49; pKi (Vasopressin V1a receptor): 9.82
Cc1nc([C@H](C(=O)N2CCOCC2)N2C(=O)[C@@H](C3Cc4ccccc4C3)NC(=O)[C@H]2CC(C)C)co1	> 0.2	< 4.00	> 220	2	half-life [4]: 1.1 h; Selectivity ratio [9]: > 10; AUC [5]: 3630 ng·h/mL; AUC [6]: 1190 ng·h/mL; clearance [7]: 23 mL/min/kg; bioavailability [8]: 33%
Cc1cc([C@H](C(=O)NC(C)C)N2C(=O)[C@@H](C3Cc4ccccc4C3)NC(=O)[C@H]2CC(C)C)oc1C				1.26	
CC(C)C[C@@H]1C(=O)N[C@H](C2Cc3ccccc3C2)C(=O)N1[C@@H](C(=O)NC(C)(C)C)c1ccoc1				12.6	
CC(C)C[C@@H]1C(=O)N[C@H](C2Cc3ccccc3C2)C(=O)N1[C@@H](C(=O)NC(C)C)c1ccc(Br)s1	0.01	6.00	< 1	2	logD [3]: 3.7
Cc1nc([C@H](C(=O)NC(C)C)N2C(=O)[C@@H](C3Cc4ccccc4C3)NC(=O)[C@H]2CC(C)C)co1	0.37	< 4.00	> 240	1.26	Selectivity ratio [9]: > 10; AUC [5]: 225 ng·h/mL; logD [3]: 2.5
CC(C)C[C@@H]1C(=O)N[C@H](C2Cc3ccccc3C2)C(=O)N1[C@@H](C(=O)NC(C)C)c1cc(Br)cs1				1	
CC(C)C[C@@H]1C(=O)N[C@H](C2Cc3ccccc3C2)C(=O)N1[C@@H](C(=O)NC(C)C)c1ccc(Br)o1				0.794	
CC(C)C[C@@H]1C(=O)N[C@H](C2Cc3ccccc3C2)C(=O)N1[C@@H](C(=O)NC(C)C)c1ccc(C(F)(F)F)o1	0.03	5.52	< 1	0.1	logD [3]: 3.6
CNC(=O)c1ccc([C@H](C(=O)NC(C)C)N2C(=O)[C@@H](C3Cc4ccccc4C3)NC(=O)[C@H]2CC(C)C)o1				39.8	
